According to patent US20140179798A1, “N1,N4-BIS(BUTA-1,3-DIENYL)BUTANE-1,4-DIAMINE PHARMACEUTICAL COMPOSITIONS AND METHODS THEREOF” (Wisconsin Alumni Research Foundation, priority 2006, published 2014):
Entries after “also recorded” stand apart in the source; their conditions may differ.

Key:
[1] = system: DU-145 human prostate cancer cells; assay: DCFH (DCF) oxidation assay of ROS, DCF/DNA fluorescence; format: cell-based; conditions: for DCF/DNA Fluor, units: DU-145, DMEM + F(5)
Description: (§1) It is well-accepted in the art that androgen, at physiological concentrations, induces ROS production in androgen dependent prostate cancer cells. A 2′,7′-dichlorodihydrofluorescein diacetate (DCF) oxidation assay was used to measure the ratio of oxidized DCF:DNA fluorescence which is an accepted measure of ROS levels in prostate cell lines.
The LNCaP human prostate cancer cells were grown in an androgen-depleted medium of 1% FBS and 4% charcoal stripped FBS, (F1/C4) and in the presence or absence of 1 nM synthetic androgen analog R1881 with or without 15 μM antioxidant α-tocopherol (vitamin E) pretreatment.
BE-3-3-3 is known to induce SSAT enzyme activity in various cell lines including androgen-dependent LNCaP and androgen-independent DU-145 prostate cancel cells. DU-145 cells were treated with increasing concentrations of BE-3-3-3 for 72 hours. Oxidative stress was measured using 96-well plate based 2′7′-dichlorfluorescein diacetate dye (“DCF”) oxidation assay. Each data point is an average of qty. 6 identically-treated wells repeated twice in triplicates.
DCFH oxidation assay. The 96-well cultures or freshly re-sected animal or human tissues were assayed for estimation of ROS levels in intact cells using the dye 2′,7′ -dichlorofluorescein diacetate (DCF) (Molecular Probes, Inc., Eugene, Oreg.). Re-sected tissues or cell cultures were washed with 200 μL Kreb's Ringer buffer (116 mM NaCl, 4.2 mM KCl, 2.5 mM CaCl2, 1.6 mM NaH2PO4, 1.2 mM MgSO4, 22 mM NaHCO3, and 11 mM D-glucose), pre-warmed to 37° C., incubated at 37° C. in 100 μL Kreb's Ringer buffer containing 10 μg/mL (final concentration) DCF dye for 45 minutes. Each 96-well culture plate was scanned on a CytoFluor 2350™ plate scanner (Applied Biosystems, Foster City, Calif.) using the 485 excitation/530 emission frequencies. […]
(§2) was added to each well 45 minutes and to all tissues 60 minutes before fluorescence measurements. The DNA fluorescence was determined 360 nm excitation/460 nm emission. All DCF or Hydroethidine fluorescence were normalized to DNA fluorescence for proper quantitation of oxidative stress.

[2] = system: LNCaP human prostate cancer cells; assay: as above; format: cell-based; conditions: for DCF/DNA Fluor, units: DMEM + (F1/C4)
Description: as §1, with “lines. […]” for “lines.”
Results were determined using DCF oxidation assay methods. Each data point is an average of readings from qty. 6 wells repeated twice in triplicates.
DCFH oxidation assay. The 96-well cultures or freshly re-sected animal or human tissues were assayed for estimation of ROS levels in intact cells using the dye 2′,7′ -dichlorofluorescein diacetate (DCF) (Molecular Probes, Inc., Eugene, Oreg.). Re-sected tissues or cell cultures were washed with 200 μL Kreb's Ringer buffer (116 mM NaCl, 4.2 mM KCl, 2.5 mM CaCl2, 1.6 mM NaH2PO4, 1.2 mM MgSO4, 22 mM NaHCO3, and 11 mM D-glucose), pre-warmed to 37° C., incubated at 37° C. in 100 μL Kreb's Ringer buffer containing 10 μg/mL (final concentration) DCF dye for 45 minutes. Each 96-well culture plate was scanned on a CytoFluor 2350™ plate scanner (Applied Biosystems, Foster City, Calif.) using the 485 excitation/530 emission frequencies. Each tissue sample was scanned.
DNA Assay. Fifty μL of Kreb's Ringer Buffer (40 ug/mL) containing Hoechst 33342 dye, which contains
as §2

[3] = system: TRAMP male mice (spontaneous prostate tumors); assay: Overall survival of TRAMP mice; format: in vivo, mouse
[4] = system: prostate tissue in TRAMPxFVB animals; assay: Hydroethidine (HEt) dye oxidation in prostate sections in vivo; design: species or system mouse; conditions: 20-week-old TRAMPxFVB, 6 administrations of 25 mg/kgBW, sacrificed 2 weeks after treatment, HEt 8 mg/kgBW i.v.
Description: A method using hydroethidine (HEt) dye oxidation was standardized to observe oxidative stress in prostate tumors in vivo. HEt oxidizes to 2-hydroxy ethidium specifically by a ROS(41). The 2-hydroxy ethidium fluoresces at 488 nm excitation and 595 nm emission frequencies. The HEt dye may be safely injected into animals at least 1 hour before sacrifice. Twenty-week old TRAMPxFVB animals were injected with HEt (8 mg/kgBW) 1 hour before sacrifice. After sacrifice, prostate glands were collected, formalin-fixed and paraffin-embedded. Paraffin blocks were microtome-sectioned, and the tissues were deparaffinized, observed using fluorescence microscopy, and analyzed using digital image analysis.
The picture shown in FIGS. 7A-7D were taken at 20× magnification using an Olympus BH-2 fluorescence microscope using 480 nm excitation/600 nm emission filters coupled with a Sony DSC-V3 digital camera set at F2.8 and 30 sec. exposure.
Hydroethidine Assay. Hydroethidine dye was dissolved in DMSO (100 mg/ml) and diluted in isotonic saline to 1 mg/ml before injection. […] Microtome sections of the blocks were mounted on slides and were quantitated for fluorescence at 488 nm excitation/595 nm emission frequencies.

Androgen Receptor = assay: Western blot analysis of Androgen Receptor; format: in vivo, mouse; conditions: TRAMPxFVB mice
[5] = system: polyamine and acetyl polyamine levels in LNCaP human prostate cells; assay: HPLC quantitation of polyamine and acetyl polyamine levels; format: cell-based
Text: Each data point is an average of 2 determinations of cell pellets collected from qty. 3 independent experiments.
It can be stated that FIGS. 5A-5E support the conclusion that R1881 treatment increases SSAT mRNA levels while enhancing SSAT enzyme activity.

[6] = system: TRAMPxFVB mice (palpable prostate tumor); assay: Time to palpable tumor development in TRAMPxFVB mice; format: in vivo, mouse
Text: Signs of palpable prostate tumor development were monitored twice every week.

[7] = Tolerability and body weight in TRAMPxFVB mice; conditions: 25 mg/kgBW
[8] = system: TRAMPxFVB male mice (spontaneous prostate tumors); assay: Overall survival of TRAMPxFVB mice; format: in vivo, mouse
Text: In the study using the TRAMPxFVB mice, qty. 8 animal were in the MDL 72,527-treated group, and qty. 8 mice were in the vehicle-treated group. Since these animals start prostate tumor development at an earlier age than do the TRAMP animals, treatment began at 8 weeks of age. Treatment included qty. […] Over 60% of the MDL 72,527-treated TRAMPxFVB mice survived at least 8 weeks after the end of the therapy, and at least 6 weeks after the death of the entire group of control vehicle-treated animals.

[9] = system: SSAT mRNA in LNCaP human prostate cancer cells; assay: qRT-PCR quantitation of SSAT mRNA normalized to GAPDH mRNA; format: cell-based; conditions: 1 nM R1881, 96 hours
Text: Each data point is an average of readings from qty. six identically-treated wells repeated twice in triplicates. […] It can be thus postulated that androgen-induced SSAT gene expression is a significant contributor to cellular ROS production in androgen-dependent prostate cancer cells.

[10] = system: SSAT gene expression in LNCaP cells; assay: DNA microarray analysis of gene expression (Affymetrix Genechip Arrays); format: cell-based, human; conditions: 1 nM R1881, 96 hours
Description: As shown schematically in FIG. 1, unusually high polyamine levels in prostate cells and high induction of SSAT may induce large increases in ROS levels. A DNA microarray analysis of gene expression in control untreated LNCaP cells and cells treated with 1 nM androgen analog R1881 for 96 hours was performed twice using Affymetrix Genechip Arrays. In both experiments, SSAT was clearly identified as being highly over-expressed in R1881 treated with LNCaP cells as compared to untreated control cells. Among the list of genes that are over-expressed (more than 10-fold over the control), SSAT was the only enzyme connected to the ROS-generating pathway.

[11] = LNCaP, 24 h pretreatment 25 μM MDL 72,527 then 1 nM R1881 96 h
[12] = 1 μM BE-3-3-3 + 25 μM MDL 72,527

With `CCNCCCNCCCNCCCNCC` [BE-3-3-3, bisethylnorspermine] the “DCF/DNA Fluor, units” value ([1]; 1 μM BE-3-3-3) was 0.67 units, the “cellular ROS levels (DCF/DNA fluorescence, percent of control)” value ([1]; DU-145, increasing BE-3-3-3 concentration, 72 hours, non-cytotoxic dose <1 μM) was “increases oxidative stress; also recorded: increases cellular ROS levels” and the “DCF/DNA Fluor, units” value ([2]; 1 μM BE-3-3-3) was 3.19 units.
For `C=C=CCNCCCCNCC=C=C` [MDL 72,527], the “survival benefit vs vehicle-treated mice” value ([3]; 25 mg/kgBW i.p. bi-weekly) was “Over 60%”, the “overall survival (OS) vs vehicle” value ([3]; 25 mg/kgBW i.p. bi-weekly x3, from 22 weeks) was “significant improvement; also recorded: improvement in overall survival; also recorded: improved overall survival” and the “HEt dye oxidation (fluorescence) in prostate section, oxidative stress in vivo” value [4] was “less HEt fluorescence; also recorded: no dye oxidation was detected”. The “Androgen Receptor level (Western blot)” value (Androgen Receptor) was “not due to down-regulation of the Androgen Receptor”, the N-acetyl-spermidine level [5, 11] was “significant increase” and the N-acetylspermine level [5, 11] was “significant increase”. The “R1881-induced increase in putrescine level” value [5, 11] was “almost completely blocked the induced increase”, the “R1881-induced increase in spermidine level” value [5, 11] was “almost completely blocked the induced increase” and the spermine level [5, 11] was “without appreciably changing”. For the same compound, the “APAO activity in cells” value ([5]; LNCaP, MDL 72,527 at 25 μM) was “efficiently and effectively blocked APAO activity”, the N-Ac-spermine level ([5]; LNCaP, treated with the compound (25 μM, 120 hours), without R1881) was “insignificantly small increase” and the “effect on SSAT gene expression and/or enzymatic activity” value ([5]; androgen-treated LNCaP cells, 25 μM MDL 72,527) was “no material effect”. The “DCF/DNA Fluor, units” value [1, 12] was 0.26 units, the “time to tumor development” value ([6]; TRAMPxFVB mice, 25 mg/kgBW every two weeks) was “delays time to tumor development” and the “treated mice with no signs of palpable tumor” value ([6]; TRAMPxFVB, 11 weeks after treatment discontinued (29 week old animals), 25 mg/kgBW once bi-weekly) was “over 40%”. The “tolerability (overt signs of toxicity, abnormal behavior, body weight loss)” value [7] was “well-tolerated”, the “androgen (R1881) induced production of ROS” value ([2]; 25 μM MDL 72,527 pretreatment, increasing R1881 concentration 96 hours) was “effectively blocks androgen induced production of ROS” and the “DCF/DNA Fluor, units” value [2, 12] was 1.87 units. For the same compound, the “survival benefit vs vehicle-treated mice” value ([8]; 25 mg/kgBW i.p. bi-weekly) was “Over 60%”, the “treated mice surviving at least 8 weeks after the end of the therapy” value ([8]; 25 mg/kgBW i.p. bi-weekly x6) was “Over 60%” and the “overall survival (OS) vs vehicle” value ([8]; 25 mg/kgBW i.p. bi-weekly x6, from 8 weeks of age) was “significant increase in OS; also recorded: improvement in overall survival; also recorded: increased overall survival”.
In the case of `C[C@]1(O)CC[C@H]2[C@@H]3CCC4=CC(=O)CCC4=C3C=C[C@@]21C` [R1881, reference compound], the “increase in SSAT gene expression vs untreated control cells (qRT-PCR)” value [9] is reported as 50 fold, the “SSAT over-expression over the control (DNA microarray)” value [10] is reported as “more than 10 fold” and the N-acetyl spermidine level ([5]; LNCaP, 1 nM R1881, 96 hours) is reported as “increases”. For the same compound, the N-acetylspermine level ([5]; LNCaP, 1 nM R1881, 96 hours) was “increases”, the putrescine level ([5]; LNCaP, 1 nM R1881, 96 hours) was “significantly increases” and the spermidine level ([5]; LNCaP, 1 nM R1881, 96 hours) was “significantly increases”. For the same compound, the spermine level ([5]; LNCaP, 1 nM R1881, 96 hours) was “decreases”, the oxidative stress ([2]; 0.05 nM R1881) was “no increase in oxidative stress” and the “DCF/DNA Fluor, units” value ([2]; 1 nM R1881) was 3.34 units.
For `Cc1c(C)c2c(c(C)c1O)CC[C@@](C)(CCC[C@H](C)CCC[C@H](C)CCCC(C)C)O2` [Vitamin E, α-tocopherol], the “DCF/DNA Fluor, units” value ([2]; 1 nM R1881 + 15 μM Vitamin E) was 1.80 units.
